Assay results from patent US7112565B2, “Stabilized pharmaceutical composition in lyophilized form” (Astellas Pharma Inc., priority 1999, dated 2006).

Legend:
Type in all cases: physicochemical
[1] = Test Example 3: dependence of stability on the amount of lactose added
Protocol: 10 mg of Compound (II) and, as a stabilizer, 100 mg of lactose or 9 mg of sodium chloride were dissolved completely in 1 ml of water. The resulting solutions were lyophilized and maintained at 70° C. in glass vials. Nine days after, the resulting compositions were tested on their appearance, the residual amount of Compound (II), and others. As a control, used was a solution of Compound (II) without any stabilizers.
Dependence of the Stability of Lyophilized Compositions of Compound (II) upon the Amount of Lactose Added
Tests were carried out in the same manner as in Test example 1 except that 20 mg, 50 mg, 100 mg or 200 mg of lactose were added as a stabilizer. […] Incidentally, it took 15 seconds to reconstitute the compositions in 1 ml of water.

[2] = Test Example 6: dependence of stability on the pH of the solution before lyophilizing; details: for Residual amount / Water content / pH of reconstituted solution in 5 ml of purified water: 10 mg Compound (II) + 100 mg lactose
Protocol: Dependence of the Stability of Lyophilized Compositions of Compound (II) upon the pH Value of the Solution of the Composition before Lyophilizing
10 mg of Compound (II) and, as a stabilizer, 100 mg of lactose were dissolved completely in 1 ml of citrate-NaOH buffer having different pH value between pH 4.0 to 7.0. The resulting solutions having different pH values were lyophilized and maintained at 70° C. in glass vials. Nine days after, the resulting compositions were tested on their pH and the residual amount of Compound (II).

[3] = Test Example 7: dependence of stability on the water content of the composition; details: 10 mg Compound (II) + 50 mg lactose
Protocol: Dependence of the Stability of Lyophilized Compositions of Compound (II) upon the Water Content of the Composition
10 mg of Compound (II) and, as a stabilizer, 50 mg of lactose were dissolved completely in 1 ml of water. The resulting solutions were lyophilized and maintained at 70° C. in glass vials. Nine days after, the resulting compositions were tested on their pH, their water content and the residual amount of Compound (II).

[4] = Test Example 4: stability of lyophilized compositions of 200 mg of lactose and Compound (II) in vial
[5] = 10 mg Compound (II) + 20 mg lactose, 0 hours
[6] = 10 mg Compound (II) + 20 mg lactose, after 3 months at 40° C. and 75% humidity
[7] = 10 mg Compound (II) + 20 mg lactose, after 9 days at 70° C.
[8] = 10 mg Compound (II) + 50 mg lactose, 0 hours
[9] = 10 mg Compound (II) + 50 mg lactose, after 3 months at 40° C. and 75% humidity
[10] = 10 mg Compound (II) + 50 mg lactose, after 9 days at 70° C.
[11] = 10 mg Compound (II) + 100 mg lactose, 0 hours
[12] = 10 mg Compound (II) + 100 mg lactose, after 3 months at 40° C. and 75% humidity
[13] = 10 mg Compound (II) + 100 mg lactose, after 9 days at 70° C.
[14] = 10 mg Compound (II) + 200 mg lactose, 0 hours
[15] = 10 mg Compound (II) + 200 mg lactose, after 3 months at 40° C. and 75% humidity
[16] = 10 mg Compound (II) + 200 mg lactose, after 9 days at 70° C.
[17] = solution pH 4.0 before lyophilizing, 0 hours
[18] = solution pH 4.0 before lyophilizing, 9 days at 70° C.
[19] = solution pH 4.5 before lyophilizing, 0 hours
[20] = solution pH 4.5 before lyophilizing, 9 days at 70° C.
[21] = solution pH 5.0 before lyophilizing, 0 hours
[22] = solution pH 5.0 before lyophilizing, 9 days at 70° C.
[23] = solution pH 5.5 before lyophilizing, 0 hours
[24] = solution pH 5.5 before lyophilizing, 9 days at 70° C.
[25] = solution pH 6.0 before lyophilizing, 0 hours
[26] = solution pH 6.0 before lyophilizing, 9 days at 70° C.
[27] = solution pH 6.5 before lyophilizing, 0 hours
[28] = solution pH 6.5 before lyophilizing, 9 days at 70° C.
[29] = solution pH 7.0 before lyophilizing, 0 hours
[30] = solution pH 7.0 before lyophilizing, 9 days at 70° C.
[31] = water content at 0 hours 0.9%, after 9 days at 70° C.
[32] = water content at 0 hours 1.4%, after 9 days at 70° C.
[33] = water content at 0 hours 2.6%, after 9 days at 70° C.
[34] = water content at 0 hours 3.4%, after 9 days at 70° C.
[35] = water content at 0 hours 5.1%, after 9 days at 70° C.
[36] = 25 mg Compound (II) + 200 mg lactose, after 3 months at 40° C. and 75% humidity

CCCCCOc1ccc(-c2cc(-c3ccc(C(=O)NC4CC(O)C(O)NC(=O)C5C(O)C(C)CN5C(=O)C(C(O)CC(N)=O)NC(=O)C(C(O)C(O)c5ccc(O)c(OS(=O)(=O)[O-])c5)NC(=O)C5CC(O)CN5C(=O)C(C(C)O)NC4=O)cc3)no2)cc1.[Na+] (stereo not shown) [Compound (II)]
Clarity of reconstituted solution in 1 ml of water [1, 5]: Clear | Color of reconstituted solution in 1 ml of water [1, 5]: Colorless | Residual amount [1, 5]: 100.0% | Total impurities [1, 5]: 3.44% | Water content [1, 5]: 1.2% | pH of reconstituted solution in 1 ml of water [1, 5]: 6.09 | Clarity of reconstituted solution in 1 ml of water [1, 6]: Clear | Color of reconstituted solution in 1 ml of water [1, 6]: Colorless | Residual amount [1, 6]: 100.0% | Total impurities [1, 6]: 3.99% | pH of reconstituted solution in 1 ml of water [1, 6]: 6.57 | Clarity of reconstituted solution in 1 ml of water [1, 7]: Not clear | Color of reconstituted solution in 1 ml of water [1, 7]: White | Residual amount [1, 7]: 88.09% | Total impurities [1, 7]: 12.3% | pH of reconstituted solution in 1 ml of water [1, 7]: 3.03 | Clarity of reconstituted solution in 1 ml of water [1, 8]: Clear | Color of reconstituted solution in 1 ml of water [1, 8]: Colorless | Residual amount [1, 8]: 100.0% | Total impurities [1, 8]: 3.32% | Water content [1, 8]: 0.5% | pH of reconstituted solution in 1 ml of water [1, 8]: 6.57 | Appearance [1, 9]: White mass | Clarity of reconstituted solution in 1 ml of water [1, 9]: Clear | Color of reconstituted solution in 1 ml of water [1, 9]: Colorless | Residual amount [1, 9]: 99.8% | Total impurities [1, 9]: 4.21% | Clarity of reconstituted solution in 1 ml of water [1, 10]: Clear | Color of reconstituted solution in 1 ml of water [1, 10]: Colorless | Residual amount [1, 10]: 96.7% | Total impurities [1, 10]: 7.37% | pH of reconstituted solution in 1 ml of water [1, 10]: 5.56 | Clarity of reconstituted solution in 1 ml of water [1, 11]: Clear | Color of reconstituted solution in 1 ml of water [1, 11]: Colorless | Residual amount [1, 11]: 100.0% | Total impurities [1, 11]: 3.43% | Water content [1, 11]: 0.3% | pH of reconstituted solution in 1 ml of water [1, 11]: 6.58 | Appearance [1, 12]: White mass | Color of reconstituted solution in 1 ml of water [1, 12]: Colorless | Residual amount [1, 12]: 99.6% | Total impurities [1, 12]: 3.96% | pH of reconstituted solution in 1 ml of water [1, 12]: 5.80 | Clarity of reconstituted solution in 1 ml of water [1, 13]: Clear | Color of reconstituted solution in 1 ml of water [1, 13]: Colorless | Residual amount [1, 13]: 96.7% | Total impurities [1, 13]: 7.08% | pH of reconstituted solution in 1 ml of water [1, 13]: 6.08 | Clarity of reconstituted solution in 1 ml of water [1, 14]: Clear | Color of reconstituted solution in 1 ml of water [1, 14]: Colorless | Residual amount [1, 14]: 100.0% | Total impurities [1, 14]: 3.40% | Water content [1, 14]: 0.3% | pH of reconstituted solution in 1 ml of water [1, 14]: 6.78 | Appearance [1, 15]: White mass | Clarity of reconstituted solution in 1 ml of water [1, 15]: Clear | Color of reconstituted solution in 1 ml of water [1, 15]: Colorless | Residual amount [1, 15]: 99.6% | Total impurities [1, 15]: 4.35% | pH of reconstituted solution in 1 ml of water [1, 15]: 5.36 | Clarity of reconstituted solution in 1 ml of water [1, 16]: Clear | Color of reconstituted solution in 1 ml of water [1, 16]: Colorless | Residual amount [1, 16]: 96.1% | Total impurities [1, 16]: 7.30% | pH of reconstituted solution in 1 ml of water [1, 16]: 5.70 | Time to reconstitute the compositions in 1 ml of water ([1]; 10 mg Compound (II) + 20, 50, 100 or 200 mg lactose): 15 s | Stability of lyophilized compositions (conclusion from Table 3) ([1]; 10 mg of Compound (II) and various amount of lactose): no problem in their stability | Residual amount ([2]; all solution pH values 4.0 to 7.0, 0 hours): 100% | Water content [2, 17]: 0.2% | pH of reconstituted solution in 5 ml of purified water [2, 17]: 3.9 | Residual amount [2, 18]: 94.4% | pH of reconstituted solution in 5 ml of purified water [2, 18]: 4.0 | Water content [2, 19]: 0.2% | pH of reconstituted solution in 5 ml of purified water [2, 19]: 4.4 | Residual amount [2, 20]: 95.9% | pH of reconstituted solution in 5 ml of purified water [2, 20]: 4.5 | Water content [2, 21]: 0.3% | pH of reconstituted solution in 5 ml of purified water [2, 21]: 4.8 | Residual amount [2, 22]: 97.4% | pH of reconstituted solution in 5 ml of purified water [2, 22]: 4.9 | Water content [2, 23]: 0.3% | pH of reconstituted solution in 5 ml of purified water [2, 23]: 5.4 | Residual amount [2, 24]: 98.5% | pH of reconstituted solution in 5 ml of purified water [2, 24]: 5.4 | Water content [2, 25]: 0.3% | pH of reconstituted solution in 5 ml of purified water [2, 25]: 5.8 | Residual amount [2, 26]: 97.7% | pH of reconstituted solution in 5 ml of purified water [2, 26]: 5.8 | Water content [2, 27]: 0.4% | pH of reconstituted solution in 5 ml of purified water [2, 27]: 6.4 | Residual amount [2, 28]: 96.9% | pH of reconstituted solution in 5 ml of purified water [2, 28]: 6.4 | Water content [2, 29]: 0.3% | pH of reconstituted solution in 5 ml of purified water [2, 29]: 6.8 | Residual amount [2, 30]: 95.8% | pH of reconstituted solution in 5 ml of purified water [2, 30]: 6.8 | Stability of composition (conclusion from Table 5) ([2]; after lyophilizing the solution at pH 4.0 to 7.0 at least, preferably pH 4.5 to 7.0): stable | pH of reconstituted solution in 1 ml of water ([3]; all water contents 0.9 to 5.1%, 0 hours): 7.1 | Residual amount [3, 31]: 97.6% | Water content [3, 31]: 2.5% | pH of reconstituted solution in 1 ml of water [3, 31]: 7.5 | Residual amount [3, 32]: 98.1% | Water content [3, 32]: 2.9% | pH of reconstituted solution in 1 ml of water [3, 32]: 7.1 | Residual amount [3, 33]: 97.1% | Water content [3, 33]: 3.6% | pH of reconstituted solution in 1 ml of water [3, 33]: 6.8 | Residual amount [3, 34]: 92.7% | Water content [3, 34]: 4.3% | pH of reconstituted solution in 1 ml of water [3, 34]: 6.8 | Residual amount [3, 35]: 18.3% | Water content [3, 35]: 5.4% | pH of reconstituted solution in 1 ml of water [3, 35]: 3.5 | Residual amount [4, 36]: 101.2% | pH of reconstituted solution in 5 ml of purified water [4, 36]: 6.14 | Total impurities ([4]; 50 mg Compound (II) + 200 mg lactose, after 21 days at 60° C.): 3.68% | Residual amount ([4]; 75 mg Compound (II) + 200 mg lactose, after 21 days at 60° C.): 97.7% | pH of reconstituted solution in 5 ml of purified water ([4]; 100 mg Compound (II) + 200 mg lactose, after 3 months at 40° C. and 75% humidity): 5.85
